Data taken from patent US20210308089A1, “METHODS OF TREATING AND/OR PREVENTING VIRAL INFECTIONS AND/OR DISEASES CAUSED BY VIRUSES IN A SUBJECT IN NEED THEREOF” (priority 2020, published 2021).

Tested on: patients of the REDUCE-IT and earlier EPA placebo-controlled trials
Assay type: in vivo, human
Conditions: R-I

CC/C=C\C/C=C\C/C=C\C/C=C\C/C=C\CCCC(=O)OCC [icosapent ethyl, eicosapentaenoic acid ethyl ester]
AR: ALP high (Day 120): 3.2%
AR: ALP high (Day 360): 3.4%
AR: ALP high (Day 720): 4.4%
AR: ALP high (Day 1080): 4.4%
AR: ALP high (Day 1440): 4.2%
AR: ALP high (Day 1800): 4.3%
AR: ALP shift: normal to high (Day 120): 1.5%
AR: ALP shift: normal to high (Day 360): 1.8%
AR: ALP shift: normal to high (Day 720): 3.0%
AR: ALP shift: normal to high (Day 1080): 3.3%
AR: ALP shift: normal to high (Day 1440): 3.2%
AR: ALP shift: normal to high (Day 1800): 3.3%
AR: ALP shift: normal to low (Day 120): 0.3%
AR: ALP shift: normal to low (Day 360): 0.3%
AR: ALP shift: normal to low (Day 720): 0.4%
AR: ALP shift: normal to low (Day 1080): 0.4%
AR: ALP shift: normal to low (Day 1440): 0.6%
AR: Albumin high (Day 120): 1.0%
AR: Albumin high (Day 360): 1.2%
AR: Albumin high (Day 720): 2.1%
AR: Albumin high (Day 1080): 1.9%
AR: Albumin high (Day 1440): 1.8%
AR: Albumin shift: normal to high (Day 120): 0.8%
AR: Albumin shift: normal to high (Day 360): 0.9%
AR: Albumin shift: normal to high (Day 720): 1.9%
AR: Albumin shift: normal to high (Day 1080): 1.8%
AR: Albumin shift: normal to high (Day 1440): 1.6%
AR: Bilirubin >1x ULN to 2x ULN: 3.3%
AR: Bilirubin >2x ULN to 3x ULN: 0.2%
AR: Bilirubin high (Day 120): 1.9%
AR: Bilirubin high (Day 360): 1.9%
AR: Bilirubin high (Day 720): 2.0%
AR: Bilirubin high (Day 1080): 2.4%
AR: Bilirubin high (Day 1440): 2.3%
AR: Bilirubin high (Day 1800): 2.6%
AR: Bilirubin shift: normal to high (Day 120): 1.0%
AR: Bilirubin shift: normal to high (Day 360): 0.9%
AR: Bilirubin shift: normal to high (Day 720): 1.0%
AR: Bilirubin shift: normal to high (Day 1080): 1.4%
AR: Bilirubin shift: normal to high (Day 1440): 1.3%
AR: Bilirubin shift: normal to high (Day 1800): 1.4%
AR: Calcium high (Day 120): 1.0%
AR: Calcium high (Day 360): 1.1%
AR: Calcium high (Day 720): 1.2%
AR: Calcium low (Day 120): 0.2%
AR: Calcium low (Day 360): 0.2%
AR: Calcium low (Day 720): 0.2%
AR: DBP High (≥100 mmHg): 5.3%
AR: DBP High and Rose ≥10 mmHg: 4.3%
AR: DBP Low (≤50 mmHG): 1.0%
AR: DBP Low and dropped ≥10 mmHg: 0.9%
AR: DBP dropped ≥10 mmHG: 37.8%
AR: DBP rose ≥10 mmHg: 36.5%
AR: High platelets (Day 720): 1.5%
AR: Low platelets (Day 360): 2.0%
AR: Low platelets (Day 720): 3.1%
AR: Low platelets (Day 1080): 3.2%
AR: Platelet count: PCS Low <100 × 10^3/uL: 0.8%
AR: SBP High (≥160 mmHg): 18.8%
AR: SBP High and rose ≥20 mmHg: 11.9%
AR: SBP Low (≤90 mmHg): 0.8%
AR: SBP dropped ≥20 mmHg: 24.0%
AR: SBP low and dropped ≥20 mmHg: 0.6%
AR: SBP rose ≥20 mmHg: 29.6%
AR: Urate high (Day 120): 13.4%
AR: Urate high (Day 360): 13.0%
AR: Urate high (Day 720): 12.4%
AR: Urate high (Day 1080): 12.7%
AR: Urate high (Day 1440): 12.7%
AR: Urate high (Day 1800): 12.1%
AR: Urate shift: normal to high (Day 120): 5.5%
AR: Urate shift: normal to high (Day 360): 6.0%
AR: Urate shift: normal to high (Day 720): 6.2%
AR: Urate shift: normal to high (Day 1080): 7.1%
AR: Urate shift: normal to high (Day 1440): 8.2%
AR: Urate shift: normal to high (Day 1800): 8.2%
AR: Urate shift: normal to low (Day 120): 0.1%
AR: Urate shift: normal to low (Day 360): 0.2%
AR: Urate shift: normal to low (Day 720): 0.2%
AR: Urate shift: normal to low (Day 1080): 0.2%
AR: Urate shift: normal to low (Day 1440): 0.3%
AR: Uric acid PCS High >7.5 mg/dL (Women): 5.0%
AR: Uric acid PCS High >8.0 mg/dL (Men): 15.3%
AR: Uric acid PCS Low <1.9 mg/dL (Women): 0.0%
AR: Uric acid PCS Low <2.5 mg/dL (Men): 0.4%
ARR: ALP high (Day 120): −1.5%
ARR: ALP high (Day 360): −2.0%
ARR: ALP high (Day 720): −2.4%
ARR: ALP high (Day 1080): −3.0%
ARR: ALP high (Day 1440): −2.9%
ARR: ALP high (Day 1800): −2.7%
ARR: ALP shift: normal to high (Day 120): −1.3%
ARR: ALP shift: normal to high (Day 360): −1.8%
ARR: ALP shift: normal to high (Day 720): −2.6%
ARR: ALP shift: normal to high (Day 1080): −3.0%
ARR: ALP shift: normal to high (Day 1440): −2.7%
ARR: ALP shift: normal to high (Day 1800): −2.6%
ARR: ALP shift: normal to low (Day 120): 0.4%
ARR: ALP shift: normal to low (Day 360): 0.3%
ARR: ALP shift: normal to low (Day 720): 0.4%
ARR: ALP shift: normal to low (Day 1080): 0.3%
ARR: ALP shift: normal to low (Day 1440): 0.1%
ARR: Albumin high (Day 120): 0.8%
ARR: Albumin high (Day 360): 0.7%
ARR: Albumin high (Day 720): 0.6%
ARR: Albumin high (Day 1080): 0.7%
ARR: Albumin high (Day 1440): 0.8%
ARR: Albumin shift: normal to high (Day 120): 0.8%
ARR: Albumin shift: normal to high (Day 720): 0.7%
ARR: Albumin shift: normal to high (Day 1080): 0.4%
ARR: Albumin shift: normal to high (Day 1440): 0.7%
ARR: Bilirubin >1x ULN to 2x ULN: 3.5%
ARR: Bilirubin >2x ULN to 3x ULN: 0.2%
ARR: Bilirubin high (Day 120): 2.4%
ARR: Bilirubin high (Day 360): 2.0%
ARR: Bilirubin high (Day 720): 2.6%
ARR: Bilirubin high (Day 1080): 2.0%
ARR: Bilirubin high (Day 1440): 2.5%
ARR: Bilirubin high (Day 1800): 2.3%
ARR: Bilirubin shift: normal to high (Day 120): 1.3%
ARR: Bilirubin shift: normal to high (Day 360): 1.3%
ARR: Bilirubin shift: normal to high (Day 720): 1.3%
ARR: Bilirubin shift: normal to high (Day 1080): 1.0%
ARR: Bilirubin shift: normal to high (Day 1440): 1.8%
ARR: Bilirubin shift: normal to high (Day 1800): 1.2%
ARR: Calcium high (Day 120): −0.2%
ARR: Calcium high (Day 360): −0.1%
ARR: Calcium high (Day 720): −0.3%
ARR: Calcium low (Day 120): 0.1%
ARR: Calcium low (Day 360): 0.2%
ARR: Calcium low (Day 720): 0.2%
ARR: DBP High (≥100 mmHg): 0.6%
ARR: DBP High and Rose ≥10 mmHg: 0.4%
ARR: DBP Low (≤50 mmHG): 0.1%
ARR: DBP Low and dropped ≥10 mmHg: 0.0%
ARR: DBP dropped ≥10 mmHG: 3.2%
ARR: DBP rose ≥10 mmHg: −0.6%
ARR: High platelets (Day 720): 0.6%
ARR: Low platelets (Day 360): −1.8%
ARR: Low platelets (Day 720): −0.7%
ARR: Low platelets (Day 1080): −1.2%
